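Cultured in 96-well plates, cells were exposed to test compound for 48 hours across five concentrations. Abbreviation: GI50, concentration required for 50% inhibition of growth.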 Activity calls are given as the source filed them. Rule as the data show it: active = GI50 up to about 1.1 µM and inactive = higher.
How the values were obtained:
Assay in all cases: NCI anticancer screen, dose series, 48 h
[1] = test system: RXF 393
[2] = test system: OVCAR-4
[3] = test system: SNB-19
[4] = test system: OVCAR-5
[5] = test system: SK-MEL-28
[6] = test system: SF-539
[7] = test system: HOP-92
[8] = test system: SK-OV-3
[9] = test system: 786-0
[10] = test system: CAKI-1
[11] = test system: IGROV-1
[12] = test system: KM12
[13] = test system: ACHN
[14] = test system: OVCAR-8
[15] = test system: RPMI-8226
[16] = test system: SR

Measured: GI50

Cc1ccccc1-n1c(C)nc(-c2ccccc2)cc1=O
inactive: [1] > 100 µM | [2] > 100 µM | [3] > 100 µM | [4] > 100 µM | [5] > 100 µM | [6] > 100 µM | [7] > 100 µM | [8] > 100 µM | [9] > 100 µM | [10] > 100 µM | [11] > 100 µM | [12] > 100 µM | [13] > 100 µM | [14] > 100 µM

CN1N=C(Nc2ccccc2)Sc2c1cnn(-c1ccccc1)c2=O
inactive: [1] > 100 µM | [2] 94.4 µM | [15] 93.3 µM | [3] 96.4 µM | [6] > 100 µM | [7] 6.62 µM | [8] > 100 µM | [9] > 100 µM | [11] > 100 µM | [12] > 100 µM | [13] > 100 µM | [14] > 100 µM

Cc1ccc(C)c(NC(=O)CC2SC(Nc3ccccc3Cl)=NC2=O)c1 (stereo not drawn)
inactive: [1] 90.8 µM | [2] 65.9 µM | [3] > 100 µM | [4] > 100 µM | [5] > 100 µM | [6] > 100 µM | [7] 27.7 µM | [8] > 100 µM | [9] > 100 µM | [10] 65.8 µM | [11] > 100 µM | [12] > 100 µM | [16] 8.61 µM | [13] 71.1 µM | [14] > 100 µM

CC1(C)CC(=O)C(CC2C(=O)CCCC2=O)C(=O)C1
inactive: [1] > 100 µM | [2] > 100 µM | [3] > 100 µM | [4] > 100 µM | [5] > 100 µM | [6] > 100 µM | [8] > 100 µM | [9] > 100 µM | [10] > 100 µM | [11] > 100 µM | [12] > 100 µM | [16] > 100 µM | [13] > 100 µM | [14] > 100 µM

CCOC(=O)Cc1nc2ccc3c(c2nc1O)C(=O)c1ccccc1C3=O
inactive: [1] 8.09 µM | [2] 46.5 µM | [15] 13.6 µM | [3] > 100 µM | [4] > 100 µM | [5] > 100 µM | [6] 76.4 µM | [7] 60.4 µM | [8] 22.8 µM | [9] 65.6 µM | [10] 14.6 µM | [11] 16.9 µM | [12] 14.7 µM | [13] 20.6 µM | [14] 31.6 µM

Cc1cnc[nH]c1=O
inactive: [2] > 100 µM | [15] > 100 µM | [3] > 100 µM | [4] > 100 µM | [5] > 100 µM | [8] > 100 µM | [9] > 100 µM | [10] > 100 µM | [11] > 100 µM | [12] > 100 µM | [13] > 100 µM | [14] > 100 µM

CCCC1=C(CC)C(C(=O)Nc2c(C)cccc2C)=NC(S)N1 (stereo not drawn)
inactive: [2] > 100 µM | [15] > 100 µM | [3] > 100 µM | [4] > 100 µM | [5] > 100 µM | [6] > 100 µM | [7] > 100 µM | [9] > 100 µM | [10] > 100 µM | [11] > 100 µM | [12] > 100 µM | [16] > 100 µM | [13] > 100 µM | [14] > 100 µM

COc1cccc([C@@]2(O)c3c(ccc(O)c3OC)[C@H]2OC)c1OC
inactive: [2] 39.7 µM | [15] 39.1 µM | [3] 74 µM | [4] > 100 µM | [5] 38.1 µM | [7] 62.7 µM | [8] 31.8 µM | [9] 14.4 µM | [10] 22.6 µM | [11] 40.6 µM | [12] 24.9 µM | [16] 38.5 µM | [13] 31.3 µM | [14] 38.5 µM

C=CCn1cc(C(=O)NC(=O)NCCCCCOC(=O)CCCCCCCCCCC(=O)OCCCCCNC(=O)NC(=O)c2cn(CC=C)c(=O)n(C)c2=O)c(=O)n(C)c1=O
inactive: [1] > 100 µM | [15] > 100 µM | [3] > 100 µM | [4] > 100 µM | [5] > 100 µM | [6] > 100 µM | [7] > 100 µM | [8] > 100 µM | [9] > 100 µM | [10] > 100 µM | [11] > 100 µM | [12] > 100 µM | [13] > 100 µM | [14] > 100 µM

O=C(CC1SC(Nc2ccccc2Cl)=NC1=O)Nc1ccc(Cl)cc1Cl (stereo not drawn)
inactive: [1] > 100 µM | [2] > 100 µM | [15] 54 µM | [3] > 100 µM | [4] > 100 µM | [5] > 100 µM | [7] > 100 µM | [9] > 100 µM | [11] > 100 µM | [12] > 100 µM | [13] > 100 µM | [14] > 100 µM

O=C(N/N=C/c1ccccc1O)c1cccc([N+](=O)[O-])c1
inactive: [1] 8.95 µM | [2] 50.5 µM | [15] 8.04 µM | [3] > 58.9 µM | [4] 22.4 µM | [5] 25 µM | [6] 13.8 µM | [8] 15 µM | [9] 6.47 µM | [11] 13.7 µM | [12] 29.6 µM | [16] 3.78 µM | [13] 8.41 µM | [14] 6.95 µM

Cc1ccccc1C(=O)Oc1ccc(Oc2ccccc2)cc1
inactive: [1] > 100 µM | [2] > 100 µM | [15] > 100 µM | [3] > 100 µM | [4] > 100 µM | [6] > 100 µM | [8] > 100 µM | [9] > 100 µM | [10] 72.9 µM | [11] > 100 µM | [12] > 100 µM | [13] 28.4 µM | [14] > 100 µM

CCCCCCCCCCCCCCCCCc1nnc(N)o1
inactive: [2] > 100 µM | [15] > 100 µM | [3] > 100 µM | [4] > 100 µM | [5] > 100 µM | [6] > 100 µM | [7] > 100 µM | [8] > 100 µM | [9] > 100 µM | [10] > 100 µM | [11] > 100 µM | [12] > 100 µM | [16] > 100 µM | [13] > 100 µM | [14] > 100 µM

Cc1ccc(Oc2ccc([N+](=O)[O-])cc2[N+](=O)[O-])c(C)c1
inactive: [1] 20.5 µM | [2] 32.2 µM | [15] 26.5 µM | [4] 82.8 µM | [5] 67.8 µM | [6] 58.7 µM | [8] > 100 µM | [9] 71.8 µM | [10] 29.8 µM | [11] > 100 µM | [12] > 10 µM | [13] 47.6 µM | [14] 59.2 µM

COc1ccc(C2N3CCCCC3[C@@H]3c4[nH]c5ccccc5c4CCN23)c(OC)c1 (stereo partly drawn)
inactive: [1] 14.1 µM | [2] 25.5 µM | [15] 15.8 µM | [3] 39.4 µM | [4] 22.2 µM | [5] 19.1 µM | [6] 18.5 µM | [7] 49.9 µM | [8] 30.4 µM | [9] 33.7 µM | [10] 52 µM | [11] 45.1 µM | [13] 23.6 µM | [14] 33.3 µM

CN(C)CC1CCCCCCCCCCCCC(CN(C)C)C1=O (stereo not drawn)
inactive: [1] 11.2 µM | [2] 15.7 µM | [3] 17.5 µM | [4] 16.7 µM | [5] 13.6 µM | [6] 15.2 µM | [7] 13.2 µM | [8] 17.7 µM | [9] 10.1 µM | [10] 13.3 µM | [11] 17.3 µM | [12] 11.1 µM | [16] 1.46 µM | [13] 16.2 µM | [14] 10.3 µM

CSc1nc(NC2OCC(OC(C)=O)C(OC(C)=O)C2OC(C)=O)c(/N=C(\C)C(C)=O)c(=O)n1C (stereo not drawn)
inactive: [1] > 100 µM | [2] > 100 µM | [15] > 100 µM | [3] > 100 µM | [4] > 100 µM | [6] > 100 µM | [7] > 100 µM | [8] > 100 µM | [9] > 100 µM | [10] > 100 µM | [11] > 100 µM | [12] > 100 µM | [13] > 100 µM | [14] > 100 µM

COC(=O)C12CC3CC(C1)CC(C(=O)OC)(C3)C2
inactive: [2] > 100 µM | [15] > 100 µM | [3] > 100 µM | [4] > 100 µM | [5] > 100 µM | [6] > 100 µM | [7] > 100 µM | [8] > 100 µM | [9] > 100 µM | [10] > 100 µM | [11] > 100 µM | [12] > 100 µM | [16] > 100 µM | [13] > 100 µM | [14] > 100 µM

O=C1OC(c2ccccc2)=N/C1=C\c1cc(Cl)ccc1Cl
inactive: [1] > 100 µM | [2] > 100 µM | [15] 44.8 µM | [3] > 100 µM | [4] > 100 µM | [5] > 100 µM | [6] 72.4 µM | [7] > 100 µM | [9] 62.2 µM | [11] > 100 µM | [12] 74.1 µM | [13] > 100 µM | [14] > 10 µM

CSc1ccc2c(cc1=O)C(NC(=O)c1ccc(C#N)cc1)CCc1cc(O)c(O)c(O)c1-2 (stereo not drawn)
inactive: [2] 12.1 µM | [3] 41.9 µM | [4] > 100 µM | [5] > 100 µM | [6] 15.5 µM | [8] 27.4 µM | [9] 37.2 µM | [12] 33.7 µM | [16] 11.7 µM | [13] > 100 µM | [14] 30.5 µM

Source: ChEMBL document CHEMBL1201862, “PubChem BioAssay data set” (2004)
